Data set [1] in a line: Half life in rat at 3 mg/kg, iv. Type of data set: ADME, organism-based. Also noted: dose 3 mg/kg, route intravenous. The following applies: in vivo.
Data set [2] is described as follows: Total clearance in rat at 3 mg/kg, iv and 10 mg/kg, po. Type of data set: ADME, organism-based. The conditions noted are these: in vivo.
Data set [3] in a line: Volume of distribution in rat at 3 mg/kg, iv and 10 mg/kg, po. Type of data set: ADME, organism-based. The conditions noted are these: in vivo, read-out: Vss.
The target in data set [4] is Melanin-concentrating hormone receptor 1 (Homo sapiens, UniProt Q99705). Put plainly: Antagonist activity against human MCHR1 expressed in CHO cells by Gal4/Elk1-Luc reporter assay. Type of data set: functional, cell-based. (Reporter assays use an easily measured gene product as a stand-in for the process of interest.)
A short description of data set [5]: Oral bioavailability in rat at 3 mg/kg, iv and 10 mg/kg, po. Type of data set: ADME, organism-based. The conditions noted are these: in vivo.
Data set [6] deals with Mus musculus. Put plainly: Reduction in body weight of DIO AKR/J mouse relative to control at 1 mg/kg/day, po after 26 days. Also noted: scale not given: the % may be the effect or the level left. Type of data set: functional.
Data set [7] in a line: Ratio of drug concentration in brain to serum in DIO AKR/J mouse at 3 mg/kg, po.
The subject of data set [8] is Mus musculus. Put plainly: Concentration in DIO AKR/J mouse brain at 10 mg/kg, po. Type of data set: ADME, organism-based. Also noted: dose 10 mg/kg, route oral. The following applies: in vivo.
Data set [9] concerns Mus musculus. Put plainly: Reduction in body weight of DIO AKR/J mouse relative to control at 10 mg/kg/day, po after 26 days. Type of data set: functional. Also noted: scale not given: the % may be the effect or the level left.
For data set [10], the system named is Mus musculus. Put plainly: Concentration in DIO AKR/J mouse serum at 3 mg/kg, po. Type of data set: ADME, organism-based. Also noted: dose 3 mg/kg, route oral. The following applies: in vivo.
Data set [11] has as its system Mus musculus. Put plainly: Concentration in DIO AKR/J mouse brain at 3 mg/kg, po. Type of data set: ADME, organism-based. Also noted: dose 3 mg/kg, route oral. The following applies: in vivo.
Data set [12] in a line: Ratio of drug concentration in brain to serum in DIO AKR/J mouse at 10 mg/kg, po.
Data set [13] in a line: Ratio of drug concentration in brain to serum in DIO AKR/J mouse at 1 mg/kg, po.
Data set [14] deals with Mus musculus. Put plainly: Concentration in DIO AKR/J mouse brain at 1 mg/kg, po. Type of data set: ADME, organism-based. Also noted: dose 1 mg/kg, route oral. The conditions noted are these: in vivo.
Data set [15] concerns Mus musculus. Put plainly: Concentration in DIO AKR/J mouse serum at 10 mg/kg, po. Type of data set: ADME, organism-based. Also noted: dose 10 mg/kg, route oral. The conditions noted are these: in vivo.
In data set [16] the test system is Mus musculus. Put plainly: Reduction in body weight of DIO AKR/J mouse relative to control at 3 mg/kg/day, po after 26 days. Type of data set: functional. Also noted: scale not given: the % may be the effect or the level left.
The test system of data set [17] is Mus musculus. Put plainly: Concentration in DIO AKR/J mouse serum at 1 mg/kg, po. Type of data set: ADME, organism-based. Also noted: dose 1 mg/kg, route oral. The following applies: in vivo.

Chain of Melanin-concentrating hormone receptor 1 (Q99705 whole entry, the tested form may be a part): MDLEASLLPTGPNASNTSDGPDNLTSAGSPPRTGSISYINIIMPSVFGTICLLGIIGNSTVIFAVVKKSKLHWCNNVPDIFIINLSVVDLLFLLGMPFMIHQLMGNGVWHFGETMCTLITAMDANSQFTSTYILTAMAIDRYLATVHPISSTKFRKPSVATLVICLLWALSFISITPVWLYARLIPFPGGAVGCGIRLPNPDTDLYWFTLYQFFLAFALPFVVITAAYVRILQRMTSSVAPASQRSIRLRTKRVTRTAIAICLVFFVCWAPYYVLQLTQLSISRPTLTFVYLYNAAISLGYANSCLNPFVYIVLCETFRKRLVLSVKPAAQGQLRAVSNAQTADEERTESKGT

One may read the half-life as the time in which the quantity being followed falls by half. In general, IC50 refers to the concentration that inhibits the measured activity by half. Broadly, the bioavailability is the share of a dose that reaches the circulation, judged against a reference dose that is usually intravenous. As for `O=c1c2sc(-c3ccc(Cl)cc3)cc2ncn1-c1ccc2c(c1)OC[C@H](CN1CCCC1)O2`, in [1], the half-life is 6.1 h. Further, the clearance in data set [2] amounted to 66 mL/min/kg. Moreover, the Vd in data set [3] was 22 L/kg. In addition, half-maximal inhibition in data set [4] (IC50) was put at 24 nM. The compound further showed a bioavailability in data set [5] of 65%. Regarding `O=c1c2sc(-c3ccc(Cl)cc3)cc2ncn1-c1ccc2nc(CO)ccc2c1`, it took 3.5 nM to reach half-maximal inhibition in [4] (IC50). On the same count and under the same terms, as for `CN(C)C[C@@H]1COc2cc(-n3cnc4cc(-c5ccc(Cl)cc5)sc4c3=O)ccc2O1`, the figure is 3.2 nM.

Consider `O=c1c2sc(-c3ccc(Cl)cc3)cc2ncn1-c1ccc2nc(CN3CCN(CCCN4CCOCC4)CC3)ccc2c1`, for which, in data set [4], the IC50 was found to be 37 nM.

As to `O=c1c2sc(-c3ccc(Cl)cc3)cc2ncn1-c1ccc2c(c1)OC[C@@H](CN1CCCC1)O2`, half-maximal inhibition in [4] (IC50) was put at 7 nM. Compound `O=c1c2sc(-c3ccc(Cl)cc3)cc2ncn1-c1ccc2nc(CN3CCC(c4ccc(C(F)(F)F)cc4)CC3)ccc2c1` gave a half-life in data set [1] of 8.5 h. For the same compound, the clearance in data set [2] amounted to 3.7 mL/min/kg. The Vd in data set [3] is 1.1 L/kg. In data set [4], the IC50 turned out to be 6.1 nM. The compound further had a bioavailability in [5] of 18%. For the compound `O=c1c2sc(-c3ccc(Cl)cc3)cc2ncn1-c1ccc2c(c1)NCC(CN1CCCC1)O2` (configuration not stated), 2.3 nM corresponded to half-maximal inhibition in data set [4] (IC50).

Compound `N#Cc1ccc(-c2cc3ncn(-c4ccc5nc(CN6CCOCC6)ccc5c4)c(=O)c3s2)cc1` displayed an IC50 in [4] of 478 nM. `O=c1c2sc(-c3ccc(Cl)cc3)cc2ncn1-c1ccc2nc(CN3CCC(c4ccc(F)cc4)CC3)ccc2c1`: the half-life in [1] was 16 h. Moreover, in data set [2], the clearance worked out at 2.9 mL/min/kg. Further, the Vd in [3] turned out to be 2.3 L/kg. Besides, the IC50 in data set [4] worked out at 3.1 nM. The bioavailability in [5] was found to be 30%. `CN(C)CC1CN(S(=O)(=O)c2ccccc2)c2cc(-n3cnc4cc(-c5ccc(Cl)cc5)sc4c3=O)ccc2O1` (configuration not stated) yielded a 50% inhibitory concentration (IC50) in data set [4] of 6920 nM. Consider `CN(C)CC1CNc2cc(-n3cnc4cc(-c5ccc(Cl)cc5)sc4c3=O)ccc2O1` (configuration not stated), for which the half-life in data set [1] is 8 h. In [2], this compound gave a clearance of 88 mL/min/kg. Besides, the Vd in data set [3] is 27 L/kg. Further, the IC50 in data set [4] was found to be 3.2 nM. In addition, the bioavailability in data set [5] was 75%.

Compound `O=c1c2sc(-c3ccccc3Cl)cc2ncn1-c1ccc2nc(CN3CCOCC3)ccc2c1` returned an IC50 in data set [4] of 1260 nM. On to `O=c1c2sc(-c3ccc(Cl)cc3)cc2ncn1-c1ccc2c(c1)NCC(CN1CC[C@H](O)C1)O2` (some centres not stated), for which half-maximal inhibition in data set [4] (IC50) required 5.3 nM. The compound `CCN1CCN(Cc2ccc3cc(-n4cnc5cc(-c6ccc(Cl)cc6)sc5c4=O)ccc3n2)CC1` showed an IC50 in [4] of 6.2 nM. `CC(C)(C)c1ccc(-c2cc3ncn(-c4ccc5nc(CN6CCOCC6)ccc5c4)c(=O)c3s2)cc1`: 501 nM corresponded to half-maximal inhibition in data set [4] (IC50). The same measure, in the same setting: as for `O=c1c2sc(-c3ccc(C(F)(F)F)cc3)cc2ncn1-c1ccc2nc(CN3CCOCC3)ccc2c1`, the figure is 36 nM. On the same count and under the same terms, as for `O=c1c2sc(-c3ccc(Cl)cc3)cc2ncn1-c1ccc2nc(CN3CCOCC3)ccc2c1`, the figure is 4.9 nM. On the same count and under the same terms, as for `O=c1c2sc(-c3ccc(Cl)cc3)cc2ncn1-c1ccc2c(c1)NCC(CN1CCOCC1)O2` (configuration not stated), the figure is 8.5 nM; as for `O=c1c2sc(-c3ccc(Cl)cc3)cc2ncn1-c1ccc2nc(CN3CCC(N4CCCC4)CC3)ccc2c1`, 5.6 nM. With `O=c1c2sc(-c3ccc(Cl)cc3)cc2ncn1-c1ccc2nc(CN3CCN(CCN4CCOCC4)CC3)ccc2c1`, in data set [4], half-maximal inhibition (IC50) was put at 19 nM. As for `O=c1c2sc(-c3ccc(Cl)cc3)cc2ncn1-c1ccc2c(c1)NCC(CN1CC[C@@H](O)C1)O2` (some centres not stated), it took 3.4 nM to reach half-maximal inhibition in [4] (IC50).

`O=c1c2sc(-c3ccccc3)cc2ncn1-c1ccc2nc(CN3CCOCC3)ccc2c1` yielded an IC50 in data set [4] of 794 nM. As to `O=c1c2sc(-c3cccc(Cl)c3)cc2ncn1-c1ccc2nc(CN3CCOCC3)ccc2c1`, the IC50 in [4] worked out at 3980 nM. `O=c1c2sc(-c3ccc(Cl)cc3)cc2ncn1-c1ccc2nc(CN3CCC(c4ccccc4)CC3)ccc2c1` showed a half-life in [1] of 8 h. For the same compound, the clearance in data set [2] stood at 11 mL/min/kg. Moreover, the Vd in data set [3] worked out at 4.3 L/kg. For the same compound, in data set [4], the half-maximal inhibitory concentration (IC50) worked out at 1.3 nM. The bioavailability in [5] was determined as 19%.

Regarding `CN(C)Cc1ccc2cc(-n3cnc4cc(-c5ccc(Cl)cc5)sc4c3=O)ccc2n1`, in data set [4], the IC50 was determined as 0.74 nM. On the same count and under the same terms, as for `O=c1c2sc(-c3ccc(Cl)cc3)cc2ncn1-c1ccc2ncccc2c1`, the figure is 63 nM. `COc1ccc(-c2cc3ncn(-c4ccc5nc(CN6CCOCC6)ccc5c4)c(=O)c3s2)cc1` had a half-inhibitory concentration (IC50) in data set [4] of 31 nM. For `CCC(C)c1ccc(-c2cc3ncn(-c4ccc5nc(CN6CCOCC6)ccc5c4)c(=O)c3s2)cc1` (configuration not stated), the midpoint of inhibition in [4], the IC50, lay at 200 nM.

On to `O=c1c2sc(-c3ccc(Cl)cc3)cc2ncn1-c1ccc2nc(CN3CCCC3)ccc2c1`, for which inhibition in data set [4] was half-maximal at 1 nM (IC50). In turn, `CN(C)CC1CN(S(C)(=O)=O)c2cc(-n3cnc4cc(-c5ccc(Cl)cc5)sc4c3=O)ccc2O1` (configuration not stated) returned an IC50 in data set [4] of 4170 nM.

On to `O=c1c2sc(-c3ccc(Cl)cc3)cc2ncn1-c1ccc2nc(Cn3ccnc3)ccc2c1`, for which the IC50 in data set [4] amounted to 2 nM. For the compound `O=c1c2sc(-c3ccc(Cl)cc3)cc2ncn1-c1ccc2nc(CN3CCN(c4ccccc4)CC3)ccc2c1`, the IC50 in data set [4] was 3.8 nM. The same measure, in the same setting: as for `CN1CCN(CC2CNc3cc(-n4cnc5cc(-c6ccc(Cl)cc6)sc5c4=O)ccc3O2)CC1` (configuration not stated), the figure is 3.5 nM; as for `O=c1c2sc(-c3ccc(Br)cc3)cc2ncn1-c1ccc2nc(CN3CCOCC3)ccc2c1`, 40 nM. Same read-out and setting: as for `CN(C)C[C@H]1COc2cc(-n3cnc4cc(-c5ccc(Cl)cc5)sc4c3=O)ccc2O1`, the figure is 25 nM. Still for that read-out and setting: as for `O=c1c2sc(-c3ccc(Cl)cc3)cc2ncn1-c1ccc2nc(CN3CCCCC3)ccc2c1`, the figure is 0.89 nM; as for `O=c1c2sc(-c3ccc(Cl)cc3)cc2ncn1-c1ccc2nc(CN3CCC(CCN4CCCC4)CC3)ccc2c1`, 1.5 nM. `O=c1c2sc(-c3ccc(F)cc3)cc2ncn1-c1ccc2nc(CN3CCOCC3)ccc2c1` came in with an IC50 in [4] of 501 nM. One may read the Kp as tissue or fluid exposure divided by exposure in the circulation. `CN1CCN(Cc2ccc3cc(-n4cnc5cc(-c6ccc(Cl)cc6)sc5c4=O)ccc3n2)CC1` showed a half-life in data set [1] of 7.7 h. In [2], this compound displayed a clearance of 39 mL/min/kg. In addition, the Activity worked out at 4.8% with Mus musculus [6], 16.9% in the data set on Mus musculus [9] and 9.4% in the data set on Mus musculus [16]. For the same compound, the Kp in data set [7], in data set [12] and in data set [13] was 31 in each case. In addition, in [3], the Vd was found to be 19 L/kg. Moreover, the Drug uptake in the data set on Mus musculus [8] amounted to 13093 ng/g; in the data set on Mus musculus [10] it was 178 ng/mL; with Mus musculus [11], 5508 ng/g; in the data set with Mus musculus [14] it was 1421 ng/g; in the data set on Mus musculus [15], 414 ng/mL; in the data set on Mus musculus [17], 44 ng/mL. This compound also had an IC50 in data set [4] of 3.1 nM. In [5], this compound gave a bioavailability of 98%. `CN(C)CC1COc2cc(-n3cnc4cc(-c5ccc(Cl)cc5)sc4c3=O)ccc2O1` (configuration not stated): in data set [4], inhibition was half-maximal at 7.7 nM (IC50).

For `CN(Cc1ccc2cc(-n3cnc4cc(-c5ccc(Cl)cc5)sc4c3=O)ccc2n1)c1ccccc1`, the IC50 in data set [4] was 87 nM.

These data come from ChEMBL document CHEMBL1137354, “Potent, selective, and orally efficacious antagonists of melanin-concentrating hormone receptor 1” (J Med Chem, 2006).
